Target: T1, RORc ligand binding domain (Homo sapiens, UniProt P51449)
T1 sequence (P51449 269-508 limits assumed): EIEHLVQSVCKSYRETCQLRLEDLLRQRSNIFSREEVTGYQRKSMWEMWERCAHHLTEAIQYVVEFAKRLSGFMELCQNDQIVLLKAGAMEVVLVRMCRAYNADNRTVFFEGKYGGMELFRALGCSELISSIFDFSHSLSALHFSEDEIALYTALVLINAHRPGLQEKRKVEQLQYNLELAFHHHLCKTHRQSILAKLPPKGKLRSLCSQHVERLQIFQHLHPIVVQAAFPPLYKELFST
Assay: In Vitro RORc Ligand Binding Assay
Conditions: RORc IC50, radioligand 25-[3H]hydroxycholesterol 6 nM; 0.6 ug/mL RORc receptor; 3 h at 25° C.

Row | Structure (SMILES) | IC50 [nM]
1 | CC1(C)[C@H]2CC[C@]1(c1cncc(C(=O)NC3(CO)CC3)n1)c1nnc(-c3c(F)cccc3F)cc12 [Example 140, 6-((5R,8S)-3-(2,6-difluorophenyl)-9,9-dimethyl-5,6,7,8-tetrahydro-5,8-methanocinnolin-8-yl)-N-(1-(hydroxymethyl)cyclopropyl)pyrazine-2-carboxamide] | 44.4
2 | CC1(C)[C@H]2CC[C@]1(c1cncc(C(=O)NCc3n[nH]c(=O)[nH]3)n1)c1nnc(-c3c(F)cccc3F)cc12 [Example 141, 6-((5R,8S)-3-(2,6-difluorophenyl)-9,9-dimethyl-5,6,7,8-tetrahydro-5,8-methanocinnolin-8-yl)-N-((5-oxo-4,5-dihydro-1H-1,2,4-triazol-3-yl)methyl)pyrazine-2-carboxamide] | 113
3 | CC1(C)[C@H]2CC[C@]1(c1cncc(-c3ncnn3CCO)n1)c1nnc(-c3c(F)cccc3F)cc12 [Example 145, 2-(5-(6-((5R,8S)-3-(2,6-difluorophenyl)-9,9-dimethyl-5,6,7,8-tetrahydro-5,8-methanocinnolin-8-yl)pyrazin-2-yl)-1H-1,2,4-triazol-1-yl)ethanol] | 43.5
4 | CC1(C)[C@H]2CC[C@]1(c1cncc(C(=O)NC3(CO)COC3)n1)c1nnc(-c3c(F)cccc3F)cc12 [Example 147, 6-((5R,8S)-3-(2,6-difluorophenyl)-9,9-dimethyl-5,6,7,8-tetrahydro-5,8-methanocinnolin-8-yl)-N-(3-(hydroxymethyl)oxetan-3-yl)pyrazine-2-carboxamide] | 50.6
5 | CC1(C)[C@H]2CC[C@]1(c1ccnc(N3C[C@H](O)[C@@H](O)C3)n1)c1nnc(-c3c(F)cccc3F)cc12 [Example 152] | 174
6 | CC1(C)[C@H]2CC[C@]1(c1ccnc(NC[C@@H](O)CO)n1)c1nnc(-c3c(F)cccc3F)cc12 [Example 154] | 42.1
7 | CC1(C)[C@H]2CC[C@]1(c1ccnc(NCc3n[nH]c(=O)[nH]3)n1)c1nnc(-c3c(F)cccc3F)cc12 [Example 155] | 65.8
8 | CC1(C)[C@H]2CC[C@]1(c1cnc(C#N)c(C#N)n1)c1nnc(-c3c(F)cccc3F)cc12 [Example 159, 5-((5R,8S)-3-(2,6-difluorophenyl)-9,9-dimethyl-5,6,7,8-tetrahydro-5,8-methanocinnolin-8-yl)pyrazine-2,3-dicarbonitrile] | 548
9 | CC1(C)[C@H]2CC[C@]1(c1ccnc(C(=O)NCCO)n1)c1nnc(-c3c(F)cccc3Cl)cc12 [Example 161] | 44
10 | CC1(C)[C@H]2CC[C@]1(c1cccc(NS(=O)(=O)C3COC3)n1)c1nnc(-c3c(F)cccc3F)cc12 [Example 164, N-(6-((5R,8S)-3-(2,6-difluorophenyl)-9,9-dimethyl-5,6,7,8-tetrahydro-5,8-methanocinnolin-8-yl)pyridin-2-yl)oxetane-3-sulfonamide] | 32.4
11 | Cc1nc(C#N)c(C#N)nc1[C@@]12CC[C@@H](c3cc(-c4c(F)cccc4F)nnc31)C2(C)C [Example 167, 5-((5R,8S)-3-(2,6-difluorophenyl)-9,9-dimethyl-5,6,7,8-tetrahydro-5,8-methanocinnolin-8-yl)-6-methylpyrazine-2,3-dicarbonitrile] | 548
12 | Cc1ncc(C(=O)NCCO)nc1[C@@]12CC[C@@H](c3cc(-c4c(F)cccc4F)nnc31)C2(C)C [Example 170, 6-((5R,8S)-3-(2,6-difluorophenyl)-9,9-dimethyl-5,6,7,8-tetrahydro-5,8-methanocinnolin-8-yl)-N-(2-hydroxyethyl)-5-methylpyrazine-2-carboxamide] | 119
13 | Cc1nnc(-c2ccnc([C@@]34CC[C@@H](c5cc(-c6c(F)cccc6F)nnc53)C4(C)C)n2)[nH]1 [Example 171, (5R,8R)-3-(2,6-difluorophenyl)-9,9-dimethyl-8-(4-(5-methyl-4H-1,2,4-triazol-3-yl)pyrimidin-2-yl)-5,6,7,8-tetrahydro-5,8-methanocinnoline] | 36.6
14 | CC1(C)[C@H]2CC[C@]1(c1ccc(C#N)nc1)c1nnc(-c3c(F)cccc3Cl)cc12 [Example 172, 5-((5R,8S)-3-(2-chloro-6-fluorophenyl)-9,9-dimethyl-5,6,7,8-tetrahydro-5,8-methanocinnolin-8-yl)picolinonitrile] | 159

More lines, now with the values ahead:

Row | IC50 [nM] | Structure (SMILES)
15 | 17.2 | CC1(C)[C@H]2CC[C@]1(c1cncc(-c3ocnc3CO)n1)c1nnc(-c3c(F)cccc3F)cc12 [Example 142, (5-(6-((5R,8S)-3-(2,6-difluorophenyl)-9,9-dimethyl-5,6,7,8-tetrahydro-5,8-methanocinnolin-8-yl)pyrazin-2-yl)oxazol-4-yl)methanol]
16 | 5.9 | CNS(=O)(=O)c1cccc([C@@]23CC[C@@H](c4cc(-c5c(F)cccc5F)nnc42)C3(C)C)n1 [Example 143, 6-((5R,8S)-3-(2,6-difluorophenyl)-9,9-dimethyl-5,6,7,8-tetrahydro-5,8-methanocinnolin-8-yl)-N-methylpyridine-2-sulfonamide]
17 | 11.6 | CC1(C)[C@H]2CC[C@]1(c1cccc(-c3nnc(CO)o3)n1)c1nnc(-c3c(F)cccc3F)cc12 [Example 144, (5-(6-((5R,8S)-3-(2,6-difluorophenyl)-9,9-dimethyl-5,6,7,8-tetrahydro-5,8-methanocinnolin-8-yl)pyridin-2-yl)-1,3,4-oxadiazol-2-yl)methanol]
18 | 31.9 | CC1(C)[C@H]2CC[C@]1(c1cncc(-c3nnn[nH]3)n1)c1nnc(-c3c(F)cccc3F)cc12 [Example 146]
19 | 21 | CC1(C)[C@H]2CC[C@]1(c1cncc(-c3n[nH]c(=O)o3)n1)c1nnc(-c3c(F)cccc3F)cc12 [Example 148, 5-(6-((5R,8S)-3-(2,6-difluorophenyl)-9,9-dimethyl-5,6,7,8-tetrahydro-5,8-methanocinnolin-8-yl)pyrazin-2-yl)-1,3,4-oxadiazol-2(3H)-one]
20 | 24 | Cc1nnc(-c2cccc([C@@]34CC[C@@H](c5cc(-c6c(F)cccc6F)nnc53)C4(C)C)n2)[nH]1 [Example 149]
21 | 22.3 | CC1(C)[C@H]2CC[C@]1(c1cccc(-c3nnc(CO)[nH]3)n1)c1nnc(-c3c(F)cccc3F)cc12 [Example 150, (5-(6-((5R,8S)-3-(2,6-difluorophenyl)-9,9-dimethyl-5,6,7,8-tetrahydro-5,8-methanocinnolin-8-yl)pyridin-2-yl)-4H-1,2,4-triazol-3-yl)methanol]
22 | 13.6 | CC1(C)[C@H]2CC[C@]1(c1ccnc(-n3cnnc3)n1)c1nnc(-c3c(F)cccc3F)cc12 [Example 151]
23 | 15.7 | CC1(C)[C@H]2CC[C@]1(c1ccnc(NC[C@H](O)CO)n1)c1nnc(-c3c(F)cccc3F)cc12 [Example 153]
24 | 30.6 | CC(C)S(=O)(=O)Nc1cccc([C@@]23CC[C@@H](c4cc(-c5c(F)cccc5F)nnc42)C3(C)C)n1 [Example 156, N-(6-((5R,8S)-3-(2,6-difluorophenyl)-9,9-dimethyl-5,6,7,8-tetrahydro-5,8-methanocinnolin-8-yl)pyridin-2-yl)propane-2-sulfonamide]
25 | 5.1 | CC1(C)[C@H]2CC[C@]1(c1cccc(N3CCNC3=O)n1)c1nnc(-c3c(F)cccc3F)cc12 [Example 157, 1-(6-((5R,8S)-3-(2,6-difluorophenyl)-9,9-dimethyl-5,6,7,8-tetrahydro-5,8-methanocinnolin-8-yl)pyridin-2-yl)imidazolidin-2-one]
26 | 26.1 | CC1(C)[C@H]2CC[C@]1(c1cccc(N3CCN(CCO)C3=O)n1)c1nnc(-c3c(F)cccc3F)cc12 [Example 158, 1-(6-((5R,8S)-3-(2,6-difluorophenyl)-9,9-dimethyl-5,6,7,8-tetrahydro-5,8-methanocinnolin-8-yl)pyridin-2-yl)-3-(2-hydroxyethyl)imidazolidin-2-one]
27 | 13.1 | COC(=O)c1nccc([C@@]23CC[C@@H](c4cc(-c5c(F)cccc5Cl)nnc42)C3(C)C)n1 [Example 160]
28 | 23 | CC1(C)[C@H]2CC[C@]1(c1cccc(S(=O)(=O)NCCO)n1)c1nnc(-c3c(F)cccc3F)cc12 [Example 162, 6-((5R,8S)-3-(2,6-difluorophenyl)-9,9-dimethyl-5,6,7,8-tetrahydro-5,8-methanocinnolin-8-yl)-N-(2-hydroxyethyl)pyridine-2-sulfonamide]
29 | 19.2 | CC1(C)[C@H]2CC[C@]1(c1ccnc(NCc3nnc[nH]3)n1)c1nnc(-c3c(F)cccc3F)cc12 [Example 163]
30 | 25.1 | CC1(C)[C@H]2CC[C@]1(c1cc(C#N)ncc1Br)c1nnc(-c3c(F)cccc3F)cc12 [Example 165, 5-bromo-4-((5R,8S)-3-(2,6-difluorophenyl)-9,9-dimethyl-5,6,7,8-tetrahydro-5,8-methanocinnolin-8-yl)picolinonitrile]
31 | 3.9 | CC1(C)[C@H]2CC[C@]1(c1nc(C#N)ccc1Br)c1nnc(-c3c(F)cccc3F)cc12 [Example 166, 5-bromo-6-((5R,8S)-3-(2,6-difluorophenyl)-9,9-dimethyl-5,6,7,8-tetrahydro-5,8-methanocinnolin-8-yl)picolinonitrile]
32 | 20.1 | CC1(C)[C@H]2CC[C@]1(c1nc(C(F)(F)F)ncc1Br)c1nnc(-c3c(F)cccc3F)cc12 [Example 168]
33 | 10 | COC(=O)c1cnc(C)c([C@@]23CC[C@@H](c4cc(-c5c(F)cccc5F)nnc42)C3(C)C)n1 [Example 169, methyl 6-((5R,8S)-3-(2,6-difluorophenyl)-9,9-dimethyl-5,6,7,8-tetrahydro-5,8-methanocinnolin-8-yl)-5-methylpyrazine-2-carboxylate]
34 | 4.5 | CC1(C)[C@H]2CC[C@]1(c1cccc(C#N)n1)c1nnc(-c3c(F)cccc3Cl)cc12 [Example 173, 6-((5R,8S)-3-(2-chloro-6-fluorophenyl)-9,9-dimethyl-5,6,7,8-tetrahydro-5,8-methanocinnolin-8-yl)picolinonitrile]
